The values below come from US5580956A, “Phospholipase C-inhibiting peptides” (priority 1992, dated 1996).

Values after ≈ are worked out from the molar mass of the structure shown. Peptide text beside a SMILES is read from it. * marks the point of attachment. Cyclopentanecarbonyl = O=C(C1CCCC1)*; Isobutyryl = CC(C)C(=O)*; Hexanoyl = CCCCCC(=O)*

By MIC is commonly meant the least concentration at which growth counts as inhibited. Higher therefore signals a need for much substance. Broadly, the inhibition is how much of the control response was suppressed.

Test [1] concerns Enterococcus faecium ATCC10541. The class given is cell-based. Particulars: ATCC10541, pH 7. As to the method:
(§1) The antibacterial activity was determined by the agar dilution method using a culture medium (pH 7.0) containing 3 g/l bactotrypton (product of Difco Co.), 1 g/l meat extract, 1 g/l glucose and 16 g/l agar.

For test [2], the system named is Bacillus subtilis No. 10107. The class given is cell-based. Conditions: No. 10107, pH 7. As to the method: as §1
In test [3] the test system is Salmonella typhi ATCC9902. The class given is cell-based. Conditions: agar dilution, medium pH 7.0. As to the method: as §1
Test [4] has as its system Pseudomonas aeruginosa Bin H No. 1. The class given is cell-based. Conditions: Bin H No. 1, pH 7. As to the method:
as §1

Test [5] has as its system Proteus vulgaris ATCC6897. The class given is cell-based. Conditions: ATCC6897, pH 7. As to the method: as §1
In test [6] the test system is Shigella sonnei ATCC9290. Kind of test: Antibacterial activity, agar dilution method. The class given is cell-based. Conditions: medium pH 7.0. The procedure: as §1
(In general: In agar dilution the substance is mixed into plates at graded concentrations.)

The subject of test [7] is KMS-4 cells. In words: Cell proliferation-inhibiting activity (BrdU incorporation, Amersham Cell Proliferation Detection Kit). The class given is cell-based. Particulars: 17 hours with peptide, BrdU-stained cells. The procedure:
The following procedure was carried out with an Amersham Cell Proliferation Detection Kit. First, cells [KMS-4; M. Nanba et al., International Journal of Cancer, 32, 697 (1983)] were suspended in a DMEM culture medium (product of Nissui Seiyaku) containing 10% fetal calf serum to a concentration of 1-2×10^4 cells/ml, and 1 ml of the above-mentioned cell suspension was put into each well of a 24-well plate (product of Corning Co.). The cells were cultured for 2 days in a CO2 incubator (37° C., 5% CO2). Next, the culture medium was exchanged with a DMEM medium containing 10% fetal calf serum, and then the test peptide was added thereto and culturing was carried out for 17 hours. The culture medium was again exchanged with a serum-free DMEM medium, 0.5 ml of a solution of the reagents labelled 5-bromo-2'-deoxyuridine (BrdU) and 5-fluoro-2'-deoxyuridine (FdU) [10:1] diluted 1000-fold with the same medium was added to each well, and cultured for 2 hours. The culture medium was removed, and the cells were immobilized with an acetic acid/ethanol solution. The immobilized cells were stained according to the method for the Amersham Cell Proliferation Kit, and then further stained with a 1% Giemsa solution (product of Merck Co.). The number of cells incorporating BrdU and the total cell count within 1 field of vision of the microscope (approximately 200 cells) were determined, and the proportion (%) of stained cells per field of vision was calculated. Furthermore, the same procedure was repeated 10 times, and the average value thereof was defined as the cell proliferation activity (%). The cell proliferation-inhibiting activity was calculated in the following manner. The proliferation activity without addition of peptide was defined as "A", the proliferation activity with addition of the test peptide was defined as "B", and the cell proliferation inhibition rate (X) was determined according to the following equation. X (%)=[…]
Background: Incorporation of labelled thymidine or its analogues reports DNA synthesis.

The target of test [8] is T1, PLC-γ1 (Bos taurus, UniProt P08487).
T1 construct: A sample (PLC-γ1) was prepared from bovine thymus according to the method of Y. Homma et al; from tissue; host or cells: bovine thymus
T1 sequence (P08487 1-1291): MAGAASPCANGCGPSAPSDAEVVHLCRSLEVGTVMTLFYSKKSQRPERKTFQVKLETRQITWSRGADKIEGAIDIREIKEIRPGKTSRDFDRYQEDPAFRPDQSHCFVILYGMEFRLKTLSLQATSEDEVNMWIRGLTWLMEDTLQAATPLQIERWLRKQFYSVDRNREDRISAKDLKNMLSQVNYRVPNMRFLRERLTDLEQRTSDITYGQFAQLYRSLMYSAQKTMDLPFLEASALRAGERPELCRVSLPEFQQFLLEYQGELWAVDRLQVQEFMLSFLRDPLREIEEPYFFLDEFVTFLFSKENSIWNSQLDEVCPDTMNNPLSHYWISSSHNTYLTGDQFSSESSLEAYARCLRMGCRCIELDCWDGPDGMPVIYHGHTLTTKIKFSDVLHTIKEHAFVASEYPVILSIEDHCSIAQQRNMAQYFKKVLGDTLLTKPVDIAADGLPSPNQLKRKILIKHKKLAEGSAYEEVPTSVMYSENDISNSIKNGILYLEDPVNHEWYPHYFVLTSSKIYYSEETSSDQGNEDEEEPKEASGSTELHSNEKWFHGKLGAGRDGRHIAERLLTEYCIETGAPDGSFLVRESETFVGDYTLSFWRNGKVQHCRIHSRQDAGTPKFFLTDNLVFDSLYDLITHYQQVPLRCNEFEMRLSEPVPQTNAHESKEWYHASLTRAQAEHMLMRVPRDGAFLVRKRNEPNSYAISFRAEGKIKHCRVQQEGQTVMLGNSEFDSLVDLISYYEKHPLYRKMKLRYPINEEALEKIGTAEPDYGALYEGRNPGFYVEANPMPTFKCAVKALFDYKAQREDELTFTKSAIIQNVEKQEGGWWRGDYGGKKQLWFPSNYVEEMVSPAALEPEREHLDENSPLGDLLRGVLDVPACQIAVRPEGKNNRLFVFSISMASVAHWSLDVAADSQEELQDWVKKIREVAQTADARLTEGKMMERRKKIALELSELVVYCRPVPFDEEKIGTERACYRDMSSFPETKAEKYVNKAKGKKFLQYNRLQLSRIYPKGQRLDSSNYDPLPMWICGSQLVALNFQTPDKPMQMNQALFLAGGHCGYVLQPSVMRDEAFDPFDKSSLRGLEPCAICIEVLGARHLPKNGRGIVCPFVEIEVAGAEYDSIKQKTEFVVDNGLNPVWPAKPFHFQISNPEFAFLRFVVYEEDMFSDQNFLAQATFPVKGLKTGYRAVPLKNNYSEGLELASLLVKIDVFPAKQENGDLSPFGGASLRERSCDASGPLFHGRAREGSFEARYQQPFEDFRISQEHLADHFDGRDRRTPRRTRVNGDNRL
Kind of test: PLC-inhibiting activity (release of [3H]inositol phosphate from [3H]PIP2). The class given is biochemical, bovine. Particulars: PI-PLC-γ1, 37° C., 10 minutes, read-out: Inhibition rate (%); for inhibition at 130 µM (stock): Concentration 130 μM (aqueous solution of test peptide). As to the method: A sample (PLC-γ1) was prepared from bovine thymus according to the method of Y. Homma et al. described in Biochemical Journal [(Biochem. J.), 269, 13 (1990)]. A solution having the composition listed in Table 1 below was prepared in advance on the ice and the reaction was begun with heating to 37° C. After incubation for 10 minutes, 2 ml of a solution mixture of chloroform/methanol (2:[…]) was added thereto to stop the reaction. The resulting inositol phosphate was extracted with 0.5 ml of 1N hydrochloric acid. Two-phase distribution was carried out by centrifugation (2000×g, 3 minutes), and the amount of ^3 H contained in 0.7 ml of the supernatant was measured with scintillation counter. […] The obtained value of specific radioactivity was defined as "A", the value of specific radioactivity obtained when an equivalent amount of water was added instead of the aqueous solution of the test peptide was defined as "B", the value of specific radioactivity obtained when an equivalent amount of water was added instead of the sample and the aqueous solution of the test peptide was defined as "C", and the inhibition rate (X) was determined according to the following equation. X(%)=[…]

With `CCCCCC(=O)N[C@@H](CC(C)C)C(=O)N[C@@H](Cc1ccc(O)cc1)C(=O)N[C@@H](CCCNC(=N)N)C(=O)N[C@@H](CCCCN)C(=O)N[C@@H](CCSC)C(=O)N[C@@H](CCCNC(=N)N)C(=O)N[C@@H](CC(C)C)C(=O)N[C@@H](CCCNC(=N)N)C(=O)N[C@@H](Cc1ccc(O)cc1)C(=O)N1CCC[C@H]1C(=O)N[C@H](C(N)=O)C(C)C` [(I-27), CH3 (CH2)4 CO-Leu-Tyr-Arg-Lys-Met-Arg-Leu-Arg-Tyr-Pro-Val-NH2] (Hexanoyl-LYRKMRLRYPV-NH2), the minimal inhibitory concentration (MIC) in test [1] amounted to 83 µg/mL (≈ 52.1 µM); in test [2] it was 83 µg/mL (≈ 52.1 µM); in test [3], 83 µg/mL (≈ 52.1 µM); in test [4], 42 µg/mL (≈ 26.4 µM); in test [5] it was 83 µg/mL (≈ 52.1 µM); in test [6], 83 µg/mL (≈ 52.1 µM). For the same compound, the “Cell proliferation inhibition rate (%)” value in test [7] (Concentration 31 μM) came to 28%. Besides, the inhibition at 130 µM (stock) in test [8] amounted to 35%.

As to “Ac-YRKMRLRY-NH2 [Compound (I-10), CH3 CO-Tyr-Arg-Lys-Met -Arg-Leu-Arg-Tyr-NH2]”, the “MIC” value in test [1], in test [2], in test [4] and in test [5] was 83 µg/mL in each case. Further, in test [8] (Concentration 160 μM (aqueous solution of test peptide)), the inhibition at 160 µM (stock) worked out at 26%.

In the case of `CSCC[C@H](NC(=O)[C@H](CCCCN)NC(=O)[C@H](CCCNC(=N)N)NC(=O)[C@H](Cc1ccc(O)cc1)NC(=O)[C@H](CC(C)C)NC(=O)C1CCCC1)C(=O)N[C@@H](CCCNC(=N)N)C(=O)N[C@@H](CC(C)C)C(=O)N[C@@H](CCCNC(=N)N)C(=O)N[C@@H](Cc1ccc(O)cc1)C(=O)N1CCC[C@H]1C(=O)N[C@H](C(N)=O)C(C)C` [(I-26), C5 H9 CO-Leu-Tyr-Arg-Lys-Met-Arg-Leu-Arg-Tyr-pro-Val-NH2] (Cyclopentanecarbonyl-LYRKMRLRYPV-NH2), the “MIC” value in test [4] amounted to 42 µg/mL (≈ 26.4 µM); in test [5] it was 83 µg/mL (≈ 52.2 µM). Also, the “Cell proliferation inhibition rate (%)” value in test [7] (Concentration 31 μM) is 71%. Moreover, in test [8], the inhibition at 130 µM (stock) came to 23%.

With `CSCC[C@H](NC(=O)[C@H](CCCCN)NC(=O)[C@H](CCCNC(=N)N)NC(=O)[C@H](Cc1ccc(O)cc1)NC(=O)[C@H](CC(C)C)NC(=O)C(C)C)C(=O)N[C@@H](CCCNC(=N)N)C(=O)N[C@@H](CC(C)C)C(=O)N[C@@H](CCCNC(=N)N)C(=O)N[C@@H](Cc1ccc(O)cc1)C(=O)N1CCC[C@H]1C(=O)N[C@H](C(N)=O)C(C)C` [(I-19), (CH3)2 CHCO-Leu-Tyr-Arg-Lys-Met-Arg-Leu-Arg-Tyr-Pro-Val-NH2] (Isobutyryl-LYRKMRLRYPV-NH2), the “MIC” value in test [4] and in test [5] was 83 µg/mL (≈ 53.1 µM) each time. Moreover, the “Cell proliferation inhibition rate (%)” value in test [7] (Concentration 32 μM) is given as 59%. Besides, in test [8] (Concentration 640 μM (aqueous solution of test peptide)), the inhibition at 640 µM (stock) was determined as 67%.
